According to patent US20150258105A1, “METHODS FOR ACUTE AND LONG-TERM TREATMENT OF ALCOHOL DEPENDENCE” (DemeRx, Inc., priority 2014, published 2015):
“Also recorded” adds a separate entry of the source.

Columns and labels:
[1] = Pharmacokinetics of noribogaine in healthy volunteers, ascending single oral dose (plasma, LCMSMS); details: for AUC0-216 / AUC0-∞ / Cmax / Tmax / t1/2 / CL/F: fasted healthy volunteers, mean (SD), n = 6; for mean AUC/24 hr / mean AUC/24: fasting conditions
[2] = test system: opioid-dependent participants; assay: Opiate withdrawal scales (COWS, SOWS, OOWS) in opioid-dependent participants; assay type: in vivo, human; details: first six hours following dosing
Method: Patients were evaluated based on the Clinical Opiate Withdrawal Scale (COWS), Subjective Opiate Withdrawal Scale (SOWS), and Objective Opiate Withdrawal Scale (OOWS) scoring systems over the period of time between administration of noribogaine (or placebo) until resumption of OST. These scales are outlined in Guidelines for the Psychosocially Assisted Pharmacological Treatment of Opioid Dependence, World Health Organization, Geneva (2009), Annex 10, which is incorporated herein by reference in its entirety. The scales measure the intensity of withdrawal symptoms, based on clinical, subjective, and objective indicia.

[3] = test system: opioid-dependent participants; assay: QT interval prolongation (ΔQTc1) in opioid-dependent participants; assay type: in vivo, human; details: 60, 120, 180 mg, first 24 hours post administration
Method: Patients' QT intervals were evaluated at regular time points throughout the study.

[4] = test system: healthy, drug-free male volunteers; assay: Cold pressor test (analgesic effect) in healthy volunteers; assay type: in vivo, human
Method: Analgesic effect was assessed based on duration of hand immersion in ice water and on visual analog scale (VAS) pain scores upon hand removal from the water bath.
(§1) Safety and tolerability of noribogaine were tested in the group of volunteers from Example 1. […] Safety evaluations included clinical monitoring, recording of adverse events (AEs), safety laboratory tests, vital signs, ECG telemetry from −2 h to 6 h after dosing, and 12-lead electrocardiograms (ECGs) up to 216 hours post-dosing.

[5] = test system: opioid-dependent participants; assay: Treatment emergent adverse events in opioid-dependent participants, single dose
[6] = test system: opioid-dependent participants; assay: Time to resumption of opioid substitution treatment (OST) in opioid-dependent participants; assay type: in vivo, human; details: single 180 mg dose
[7] = Pharmacokinetics in opioid-dependent patients, Phase IB study (serum noribogaine); details: 60, 120, 180 mg cohorts
[8] = test system: healthy, drug-free male volunteers; assay: Pupillometry (pupillary miosis) in healthy volunteers; assay type: in vivo, human
Method: (§2) Pulse oximetry and capnography data were collected continuously using a GE Carescape B650 monitoring system from 2 hours prior to dosing and until six hours after dosing, and thereafter at 12, 24, 48 and 72 hours post-dosing. […] Pupillary miosis was assessed by pupillometry.
Summary statistics (means, standard deviations, and coefficients of variation) were determined for each dose group for safety laboratory test data, ECG and pharmacokinetic parameters, and pharmacodynamic variables. Categorical variables were analysed using counts and percentages. Dose-proportionality of AUC and Cmax was assessed using linear regression. The effect of dose on pharmacodynamic parameter values over time was assessed using two-factor analysis of variance (ANOVA). Pairwise comparisons (with Tukey-Kramer adjustment) between each dose group to the placebo were conducted at each time point using the least squares estimates obtained from the ANOVA, using SAS Proc Mixed (SAS ver 6.0).

[9] = test system: healthy, drug-free male volunteers; assay: Safety and tolerability of noribogaine in healthy humans (adverse events, vital signs, ECG); assay type: in vivo, human
Method: as §2, §1

[10] = test system: patients dependent on alcohol; assay: Effect of noribogaine on withdrawal from alcohol in humans; assay type: in vivo, human; details: single oral dose of 2 mg/kg, at least 2 hours after last alcohol use; self-evaluation and clinical observation
Method: Six patients are orally administered a single dose of 2 mg/kg noribogaine, and three patients receive placebo in a randomized, placebo-controlled, double-blind trial. All patients are dependent on alcohol. Treatment is administered at least 2 hours after last alcohol use.

[11] = 30 mg single oral noribogaine dose, plasma
[12] = 60 mg single oral noribogaine dose, plasma
[13] = across dose groups, healthy volunteers, plasma
[14] = after adjusting for baseline differences, p>0.9

## CC[C@H]1C[C@@H]2C[C@H]3c4[nH]c5ccc(OC6OC(C(=O)O)C(O)C(O)C6O)cc5c4CCN(C2)[C@@H]13 (some centres unmarked) [Noribogaine glucuronide, noribogaine glucuronide]
[1]; [11]
  AUC0-216: 25.7 (9.1) ng · hr/ml
  AUC0-∞: 25.8 (9.3) ng · hr/ml
  Cmax: 1.8 (0.6) ng/ml
  Tmax: 3.0 (0.6) hr
  t1/2: 20.6 (4.9) hr
[1]; [12]
  AUC0-216: 65.0 (21.5) ng · hr/ml
  AUC0-∞: 67.1 (21.9) ng · hr/ml
  Cmax: 4.1 (1.2) ng/ml
  Tmax: 3.8 (1.2) hr
  t1/2: 23.1 (3.0) hr
[1]; [13]
  mean half-life estimates: 21 to 23 h
  time of peak concentrations after oral noribogaine dosing: 3 to 4 h
[1]; after 30 mg or 60 mg oral noribogaine, healthy volunteers
  time by which detected in plasma of all subjects: ≤ 0.75 h
[1]; both dose groups (30 mg and 60 mg)
  proportion of noribogaine glucuronide Cmax and AUC relative to noribogaine: 3-4%

## CC[C@H]1CC2C[C@H]3c4[nH]c5ccc(O)cc5c4CCN(C2)C13 [noribogaine]
[1]; 3 mg single oral noribogaine dose, plasma
  CL/F: 41.4 (7.0) L/h
[1]; 10 mg single oral noribogaine dose, plasma
  CL/F: 42.3 (12.0) L/h
[1]; [11]
  CL/F: 46.9 (16.4) L/h
[1]; 30 mg single oral noribogaine dose, plasma, listed as noribogaine free base
  Tmax: 1.75 h
[1]; [12]
  CL/F: 34.0 (11.4) L/h
[1]; 3-60 mg single oral doses, healthy volunteers
  dose dependence of Cmax and AUC: increased linearly with dose
[1]; across dose groups (3-60 mg), healthy volunteers
  Volume of distribution: 1417 to 3086 L
[1]; [13]
  time of peak concentrations after oral noribogaine dosing: 2 to 3 h
[1]; healthy volunteers
  absorption after oral dosing: rapidly absorbed
[1]; single dose of 3 mg noribogaine free base, healthy volunteers
  mean AUC/24 hr: 3.1 ng/mL
[1]; single dose of 10 mg noribogaine free base, healthy volunteers
  mean AUC/24 hr: 10.6 ng/mL
[1]; single dose of 30 mg noribogaine free base, healthy volunteers
  mean AUC/24: 29.2 ng/mL
[1]; single dose of 60 mg noribogaine free base, healthy volunteers
  mean AUC/24: 61 ng/mL
[2]; 120 mg, prior to resumption of OST
  withdrawal symptoms (COWS, OOWS, SOWS scores): fewer withdrawal symptoms than the other patients
[2]; 60, 120, 180 mg
  withdrawal symptoms versus placebo (COWS, OOWS, SOWS scores): placebo generally experienced more withdrawal symptoms than patients who were administered noribogaine
[3]
  QT interval prolongation (ΔQTc1): dose-dependent increase in QT interval prolongation
[4]; 3-60 mg single oral doses, 1° C. water
  analgesic effect in the cold pressor test: no analgesic effect
[4]; after adjusting for baseline differences, p=0.17
  VAS pain scores, each dose group versus placebo (ANOVA): no statistically significant differences
[4]; [14]
  duration of hand immersion, each dose group versus placebo (ANOVA): no statistically significant differences
[5]; 60 mg single dose, N = 6
  AE: Catheter Site Infection: 0
  AE: Catheter Site Pain: 0
  AE: Catheter Site Related Reaction: 0
  AE: Cellulitis: 0
  AE: Diarrhoea: 0
  AE: Dry Mouth: 0
  AE: Ear and Labyrinth Disorders: 0
  AE: Epistaxis: 0
  AE: Euphoric Mood: 0
  AE: General Disorders and Administration Site Conditions: 0
  AE: Hyperaesthesia: 0
  AE: Infections and Infestations: 0
  AE: Limb Discomfort: 0
  AE: Malaise: 0
  AE: Nausea: 0
  AE: Oropharyngeal Pain: 0
  AE: Pseudoparalysis: 0
  AE: Respiratory, Thoracic and Mediastinal Disorders: 0
  AE: Rhinorrhoea: 0
  AE: Skin Discomfort: 0
  AE: Skin Irritation: 0
  AE: Skin and Subcutaneous Tissue Disorders: 0
  AE: Somnoience: 0
  AE: Tinnitus: 0
  AE: Tremor: 0
  AE: Urinary Tract Infection: 0
  AE: Vomiting: 0
[5]; 60 mg treatment group
  frequency of headaches: frequent
[5]; 120 mg dose group
  frequency of headaches: attenuated
[5]; 120 mg single dose, N = 6
  AE: Back Pain: 0
  AE: Catheter Site Infection: 0
  AE: Catheter Site Related Reaction: 0
  AE: Depressed Mood: 0
  AE: Dry Eye: 0
  AE: Dyspepsia: 0
  AE: Euphoric Mood: 0
  AE: Limb Discomfort: 0
  AE: Malaise: 0
  AE: Musculoskeletal and Connective Tissue Disorders: 0
  AE: Psychiatric Disorders: 0
  AE: Somnoience: 0
  AE: Urinary Tract Infection: 0
[5]; 180 mg dose group
  frequency of headaches: attenuated
[5]; 180 mg single dose, N = 6
  AE: Catheter Site Infection: 0
  AE: Catheter Site Pain: 0
  AE: Depressed Mood: 0
  AE: Diarrhoea: 0
  AE: Dry Eye: 0
  AE: Dyspepsia: 0
  AE: Ear and Labyrinth Disorders: 0
  AE: Epistaxis: 0
  AE: Euphoric Mood: 0
  AE: Hyperaesthesia: 0
  AE: Malaise: 0
  AE: Oropharyngeal Pain: 0
  AE: Pseudoparalysis: 0
  AE: Psychiatric Disorders: 0
  AE: Respiratory, Thoracic and Mediastinal Disorders: 0
  AE: Rhinorrhoea: 0
  AE: Skin Discomfort: 0
  AE: Skin Irritation: 0
  AE: Skin and Subcutaneous Tissue Disorders: 0
  AE: Somnoience: 0
  AE: Tinnitus: 0
  AE: Tremor: 0
[5]; 60, 120 or 180 mg single dose, opioid-dependent participants
  hallucinatory effects: no hallucinatory effects
[6]
  Time to resumption of OST compared with untreated patients and 60 mg: still longer than untreated patients (7 hours, not shown) or those administered 60 mg noribogaine
[7]
  dose dependence of maximum serum concentration (Cmax): increased in a dose-dependent manner
[8]; 3-60 mg single oral doses, dark-adapted pupil diameter up to 216 hours
  pupillary constriction: no evidence of pupillary constriction
[8]; [14]
  pupil diameter, each dose group versus placebo (ANOVA): no statistically significant differences
[9]; 3 mg dose group, by two subjects
  number of adverse events reported: five
[9]; 10 mg dose group, by a single subject
  number of adverse events reported: one
[9]; 30 mg dose group, by a single subject
  number of adverse events reported: one
[9]; 3-60 mg, healthy volunteers
  oximetry, capnography, respiratory rate: no changes in oximetry or capnography, or changes in respiratory rate
  vital signs and safety laboratory tests: no changes in vital signs or safety laboratory tests of note
[9]; 3-60 mg, healthy volunteers, ECGs up to 216 hours post-dosing
  QTcF values >500 msec: no QTcF values >500 msec at any time
[9]; Dose 3 mg, healthy volunteers
  Adverse events, Mild: Dizziness; also recorded: Epistaxis; also recorded: Headache; also recorded: Back pain
  Adverse events, Moderate: Headache
[9]; Dose 10 mg, healthy volunteers
  Adverse events, Mild: Headache
[9]; Dose 30 mg, healthy volunteers
  Adverse events, Mild: Headache
[9]; all dose groups, all resolved prior to study completion
  intensity of adverse events: mild-moderate intensity
[9]; one subject dosed with 10 mg, at 24 hours post-dosing
  single increase in QTcF: > 60 ms
[10]
  symptoms of alcohol withdrawal compared to placebo: fewer and/or less severe symptoms of alcohol withdrawal
